Article PMC3953731 (FEBS Open Bio, 2014)
Read-outs that look alike come from different tables or passages of the source.

Columns and labels:
[1] = tested on: the four isomaltases (Ima1p, Ima2p, Ima3p, Ima5p); test: Effects of chemical reagents and metal ions on purified isomaltases; assay type: biochemical, Saccharomyces cerevisiae
Ima3p [2] = molecular target: T1, Ima3p (Saccharomyces cerevisiae, UniProt P0CW40); settings: addition of EDTA, 5 mM; 5 mM pNPG as substrate
Ima1p [3] = molecular target: T2, Ima1p (Saccharomyces cerevisiae, UniProt P53051); test: Effects of chemical reagents and metal ions on purified isomaltases; assay type: biochemical; settings: 5 mM pNPG as substrate; for effect on activity: Mg2+ 5 mM, Mn2+ 1 mM
T2 sequence (P53051 whole entry): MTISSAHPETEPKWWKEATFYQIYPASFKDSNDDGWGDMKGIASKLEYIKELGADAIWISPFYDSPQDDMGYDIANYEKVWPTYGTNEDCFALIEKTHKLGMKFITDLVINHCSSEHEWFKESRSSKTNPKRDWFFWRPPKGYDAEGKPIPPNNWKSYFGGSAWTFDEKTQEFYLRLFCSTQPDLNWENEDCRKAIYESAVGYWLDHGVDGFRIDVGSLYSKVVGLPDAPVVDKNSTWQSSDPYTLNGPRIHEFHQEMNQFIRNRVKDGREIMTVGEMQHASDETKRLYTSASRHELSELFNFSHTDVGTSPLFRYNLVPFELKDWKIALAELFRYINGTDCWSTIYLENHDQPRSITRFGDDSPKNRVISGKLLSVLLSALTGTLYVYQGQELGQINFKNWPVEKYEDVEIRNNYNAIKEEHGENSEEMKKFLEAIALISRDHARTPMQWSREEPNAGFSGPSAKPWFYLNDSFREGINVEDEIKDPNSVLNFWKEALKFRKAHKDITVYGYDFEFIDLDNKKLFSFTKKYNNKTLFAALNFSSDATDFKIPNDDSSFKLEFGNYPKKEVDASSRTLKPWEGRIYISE

Ima2p [4] = molecular target: T3, Ima2p (Saccharomyces cerevisiae, UniProt Q08295); test: Substrate specificity of purified isomaltase; assay type: biochemical; settings: 100 mM substrate (pNPG 5 mM), pH 7, 30 °C; for Specific activities: citrate–potassium phosphate buffer
T3 sequence (Q08295 whole entry): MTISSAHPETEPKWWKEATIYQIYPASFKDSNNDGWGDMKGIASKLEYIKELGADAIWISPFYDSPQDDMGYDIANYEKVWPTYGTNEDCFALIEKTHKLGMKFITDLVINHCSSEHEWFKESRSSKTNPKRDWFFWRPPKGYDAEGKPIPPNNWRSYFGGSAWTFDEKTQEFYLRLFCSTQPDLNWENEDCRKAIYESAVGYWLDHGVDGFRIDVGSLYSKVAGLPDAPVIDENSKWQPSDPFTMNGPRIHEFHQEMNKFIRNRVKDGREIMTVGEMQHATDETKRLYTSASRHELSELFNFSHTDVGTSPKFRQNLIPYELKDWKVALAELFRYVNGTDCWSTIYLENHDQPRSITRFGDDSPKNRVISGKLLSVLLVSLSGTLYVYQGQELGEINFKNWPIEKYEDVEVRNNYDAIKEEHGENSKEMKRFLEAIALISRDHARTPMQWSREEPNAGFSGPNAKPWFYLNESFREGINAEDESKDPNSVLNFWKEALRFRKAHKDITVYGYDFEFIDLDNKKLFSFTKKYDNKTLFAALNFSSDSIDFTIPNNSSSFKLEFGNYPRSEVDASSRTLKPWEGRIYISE

Ima1p [5] = molecular target: T2, Ima1p; settings: isomaltose 50–500 mM; cited from earlier work
Ima3p [6] = molecular target: T1, Ima3p; test: Substrate specificity of purified isomaltase; assay type: biochemical; settings: 100 mM substrate (pNPG 5 mM), pH 7, 30 °C; for Specific activities: citrate–potassium phosphate buffer
Ima5p [7] = molecular target: T4, Ima5p (Saccharomyces cerevisiae, UniProt P40884); test: Inhibition by maltose of isomaltose hydrolysis; assay type: biochemical; settings: isomaltose up to 50 mM
T4 sequence (P40884 1-581): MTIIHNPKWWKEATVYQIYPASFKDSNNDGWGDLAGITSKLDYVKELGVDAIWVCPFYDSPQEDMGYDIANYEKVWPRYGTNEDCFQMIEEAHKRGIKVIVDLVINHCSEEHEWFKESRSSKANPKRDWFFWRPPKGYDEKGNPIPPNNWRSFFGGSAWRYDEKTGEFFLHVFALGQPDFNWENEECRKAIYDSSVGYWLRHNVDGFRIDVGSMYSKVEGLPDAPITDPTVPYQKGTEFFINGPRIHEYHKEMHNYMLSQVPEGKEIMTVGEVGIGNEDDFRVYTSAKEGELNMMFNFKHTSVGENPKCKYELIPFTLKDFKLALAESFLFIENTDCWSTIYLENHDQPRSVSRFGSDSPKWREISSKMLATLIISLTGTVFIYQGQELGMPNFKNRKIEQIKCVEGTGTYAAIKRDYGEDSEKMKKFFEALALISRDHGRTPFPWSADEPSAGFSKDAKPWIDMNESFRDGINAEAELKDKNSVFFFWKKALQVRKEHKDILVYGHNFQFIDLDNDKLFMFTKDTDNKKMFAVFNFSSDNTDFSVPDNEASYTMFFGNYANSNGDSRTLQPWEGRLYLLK

Ima5p [8] = molecular target: T4, Ima5p; test: Substrate specificity of purified isomaltase; assay type: biochemical; settings: 100 mM substrate (pNPG 5 mM), pH 7, 30 °C; for Specific activities: citrate–potassium phosphate buffer
[9] = tested on: the four isomaltases (Ima proteins); test: Effect of compounds on melting temperature of isomaltases; design: species or system Saccharomyces cerevisiae
[10] = tested on: the four isomaltases (Ima1p, Ima2p, Ima3p, Ima5p); test: Activity of the isomaltases on substrates; assay type: biochemical, Saccharomyces cerevisiae; settings: for activity on the substrate: all Ima proteins
Ima1p [11] = molecular target: T2, Ima1p; test: Substrate specificity of purified isomaltase; assay type: biochemical; settings: 100 mM substrate (pNPG 5 mM), pH 7, 30 °C; for Specific activities: citrate–potassium phosphate buffer
Ima1p [12] = molecular target: T2, Ima1p; test: Inhibition by maltose of isomaltose hydrolysis; assay type: biochemical
Ima1p [13] = molecular target: T2, Ima1p; test: Kinetic parameters for selected substrates; assay type: biochemical
Ima5p [14] = molecular target: T4, Ima5p; test: Kinetic parameters for selected substrates; assay type: biochemical; settings: for kcat: mean ± SEM
Ima3p [15] = molecular target: T1, Ima3p; test: Kinetic parameters for selected substrates; assay type: biochemical
Ima3pR279Q = Ima3pR279Q (Saccharomyces cerevisiae, UniProt P0CW40, R279Q); test: Substrate specificity of purified isomaltase variant; assay type: biochemical; settings: 100 mM substrate (pNPG 5 mM), citrate–potassium phosphate buffer, pH 7, 30 °C
Ima3pR279Q, sequence (P0CW40 whole entry R279Q): as the sequence (Q08295 whole entry) above, with A54T, P240L counted along it

Ima3pL240P = Ima3pL240P (Saccharomyces cerevisiae, UniProt P0CW40, L240P); test: as above; assay type: biochemical; settings: 100 mM substrate (pNPG 5 mM), citrate–potassium phosphate buffer, pH 7, 30 °C
Ima3pL240P, sequence (P0CW40 whole entry L240P): as the sequence (Q08295 whole entry) above, with A54T, Q279R counted along it

Ima2p [16] = molecular target: T3, Ima2p; test: Kinetic parameters for selected substrates; assay type: biochemical
Ima1p [17] = molecular target: T2, Ima1p; test: Inhibition by acarbose of isomaltose hydrolysis; assay type: biochemical; settings: read-out: residual activity
[18] = inhibition by high concentration of substrate
[19] = affinity constant for the substrate, mean ± SEM
[20] = substrate concentration increased to 10 mM

T1 sequence (P0CW40 whole entry): as the sequence (Q08295 whole entry) above, with A54T, P240L, Q279R counted along it

In the case of `[Ca+2]` [Ca^2+], the effect on activity ([1]; addition of Ca2+, 5 mM) is reported as “None of the isoforms was affected”.

In the case of `O=C(O)CN(CCN(CC(=O)O)CC(=O)O)CC(=O)O` [EDTA], the effect on activity (Ima3p [2]) is reported as “slightly inhibited”.

Compound `[Fe+3]` [Fe^3+] has a residual activity (Ima1p [3]; 5 mM Fe3+, pH 7, 30 °C) of 8%.

For `OC[C@H]1O[C@H](O[C@H]2[C@H](O)[C@@H](O)[C@H](O)O[C@@H]2CO)[C@H](O)[C@@H](O)[C@@H]1O` [Maltose, O-α-D-Glucosyl-(1→4)-α-D-glucose], the Specific activities (Ima2p [4]) is listed as 0 µmol/min/mg, the type of inhibition (Ima1p [5]) is listed as “competitive inhibitor” and the Specific activities (Ima3p [6]) is listed as 0 µmol/min/mg. The type of inhibition (Ima5p [7]) was “mixed inhibition”, the Specific activities (Ima5p [8]) was 0 µmol/min/mg and the “effect on melting temperature” value ([9]; presence of maltose, results not shown) was “did not affect the melting temperature”. The “activity on the substrate” value [10] was “totally inactive”, the Specific activities (Ima1p [11]) was 0 µmol/min/mg and the type of inhibition (Ima1p [12]; at high substrate concentration) was “uncompetitive inhibition”. The type of inhibition (Ima1p [12]; at low substrate concentration) was “competitive inhibition”.

With `[Mg+2]` [Mg^2+] the effect on activity (Ima1p [3]) was “slightly enhanced”.

In the case of `[Mn+2]` [Mn^2+], the effect on activity (Ima1p [3]) is reported as “slightly enhanced”.

For `OC[C@H]1O[C@@](CO)(O[C@H]2O[C@H](CO)[C@@H](O)[C@H](O)[C@H]2O)[C@@H](O)[C@@H]1O` [Sucrose, O-α-D-Glucosyl-(1→2)-β-D-fructose], the Specific activities (Ima2p [4]) was 19.7 µmol/min/mg, the “relative activity, velocity on isomaltose set to 100” value (shortened to “relative activity, velocity”) (Ima2p [4]) was 36% and the “relative activity, velocity” value (Ima2p [4]; listed as sucrose) was “approx. 35%”. For the same compound, the Ki (Ima1p [13]; [18]) was “None”, the kcat (Ima1p [13]; mean ± SEM) was 51 ± 4 s⁻¹ and the Specific activities (Ima3p [6]) was 10.2 µmol/min/mg. The “relative activity, velocity” value (Ima3p [6]) was 142%, the “lower activity of Ima5p than Ima1p” value (Ima5p [14]) was 10 fold and the Ki (Ima5p [14]; [18]) was “None”. The kcat (Ima5p [14]) was 3.8 ± 0.2 s⁻¹, the Specific activities (Ima5p [8]) was 1.2 µmol/min/mg and the “relative activity, velocity” value (Ima5p [8]) was 2%. The “catalytic efficiency on sucrose, times lower than on isomaltose” value (Ima3p [15]) was 2 times, the “catalytic efficiency on sucrose, times lower than on palatinose” value (Ima3p [15]) was 4 times and the Ki (Ima3p [15]; [18]) was “None”. It also gave a kcat (Ima3p [15]; mean ± SEM) of 25 ± 1 s⁻¹, a Specific activities (Ima3pR279Q) of 22 µmol/min/mg and a Specific activities (Ima1p [11]) of 18.6 µmol/min/mg. The “relative activity, velocity” value (Ima1p [11]) was 31%, the “relative activity, velocity” value (Ima1p [11]; listed as sucrose) was “approx. 35%” and the Specific activities (Ima3pL240P) was 11.2 µmol/min/mg. The Ki (Ima2p [16]; [18]) was “None” and the kcat (Ima2p [16]; mean ± SEM) was 55 ± 4 s⁻¹.

With `NC(CO)(CO)CO` [Tris] the “inhibition of the activity” value ([1]; 5 mM Tris) was 90% and the “increase of Tm of the 4 proteins” value ([9]; Tris 5 mM, assay at pH 7.0, results not shown) was “about 5 °C”.

`C[C@H]1O[C@H](O[C@H]2[C@H](O)[C@@H](O)[C@@H](O[C@H]3[C@H](O)[C@@H](O)C(O)O[C@@H]3CO)O[C@@H]2CO)[C@H](O)[C@@H](O)[C@@H]1N[C@H]1C=C(CO)[C@@H](O)[C@H](O)[C@H]1O` (stereo partly drawn) [acarbose] showed a remaining activity at 5000 µM (Ima1p [17]) of ~80% and a remaining activity at 20000 µM (Ima1p [17]) of ~40%.

For `OC[C@H]1O[C@H](OC[C@H]2O[C@H](O)[C@H](O)[C@@H](O)[C@@H]2O)[C@H](O)[C@@H](O)[C@H]1O` [melibiose, O-α-D-galactosyl-(1→6)-α-D-glucose], the “activity on the substrate” value [10] was “inactive”.

For `COC1OC(CO)C(O)C(O)C1O` (stereo not drawn) [α-MG, α-Methylglucopyranoside], the Specific activities (Ima2p [4]) was 55 µmol/min/mg, the “relative activity, velocity” value (Ima2p [4]) was 102% and the Km (Ima1p [13]; [19]) was 27 ± 5 mM. The kcat (Ima1p [13]; mean ± SEM) was 84 ± 8 s⁻¹, the Specific activities (Ima3p [6]) was 11 µmol/min/mg and the “relative activity, velocity” value (Ima3p [6]) was 153%. For the same compound, the Ki (Ima5p [14]; [18]) was “None”, the kcat (Ima5p [14]) was 0 s⁻¹ and the Specific activities (Ima5p [8]) was 0 (0) μmol/min/mg. For the same compound, the “relative activity, velocity” value (Ima5p [8]) was 0 (0) %, the Km (Ima3p [15]; [19]) was 15 ± 2 mM and the Ki (Ima3p [15]; [18]) was “None”. For the same compound, the kcat (Ima3p [15]; mean ± SEM) was 14 ± 1 s⁻¹, the Specific activities (Ima3pR279Q) was 50 µmol/min/mg and the Specific activities (Ima1p [11]) was 52 µmol/min/mg. For the same compound, the “relative activity, velocity” value (Ima1p [11]) was 87%, the Specific activities (Ima3pL240P) was 6.5 µmol/min/mg and the Km (Ima2p [16]; [19]) was 28 ± 6 mM. It also gave a kcat (Ima2p [16]; mean ± SEM) of 88 ± 9 s⁻¹.

With `O=[N+]([O-])c1ccc(O[C@H]2O[C@H](CO)[C@@H](O)[C@H](O)[C@H]2O)cc1` [α-pNPG, 4-Nitrophenyl α-D-glucopyranoside] the Specific activities (Ima2p [4]) was 7.7 µmol/min/mg, the “relative activity, velocity” value (Ima2p [4]) was 14% and the Ki (Ima1p [13]) was 25 ± 15 mM. For the same compound, the “drop of activity at high substrate concentration” value (“drop of activity” for short) (Ima1p [13]; [20]) was 10%, the Specific activities (Ima3p [6]) was 3.9 µmol/min/mg and the “relative activity, velocity” value (Ima3p [6]) was 54%. The Ki (Ima5p [14]) was 33 ± 21 mM, the “drop of activity” value (Ima5p [14]; [20]) was 10% and the Specific activities (Ima5p [8]) was 10 µmol/min/mg. For the same compound, the “relative activity, velocity” value (Ima5p [8]) was 15%, the Ki (Ima3p [15]) was 9.8 ± 3.2 mM and the “drop of activity” value (Ima3p [15]; [20]) was 33%. It also gave a Km ([10]; read-out: affinity constants (Km), approximate, over the Ima proteins) of ~0.5 mM, a Specific activities (Ima3pR279Q) of 8.5 µmol/min/mg and a Specific activities (Ima1p [11]) of 5.8 µmol/min/mg. For the same compound, the “relative activity, velocity” value (Ima1p [11]) was 10%, the Specific activities (Ima3pL240P) was 5.5 µmol/min/mg and the Ki (Ima2p [16]) was 12 ± 3 mM.

With `O=[N+]([O-])c1ccc(O[C@@H]2O[C@H](CO)[C@@H](O)[C@H](O)[C@H]2O)cc1` [β-pNPG, 4-Nitrophenyl β-D-glucopyranoside] the Specific activities (Ima2p [4]) was 0 µmol/min/mg, the Specific activities (Ima3p [6]) was 0 µmol/min/mg and the Specific activities (Ima5p [8]) was 0 µmol/min/mg. For the same compound, the “activity on the substrate” value [10] was “no release of pNP” and the Specific activities (Ima1p [11]) was 0 µmol/min/mg.

In the case of maltoheptaose, the “activity on the substrate” value [10] is reported as “No activity could be detected”.

With maltopentaose the “activity on the substrate” value [10] was “No activity could be detected”.
